This passage reports IC50 and Kd results from patent US20240124503A1, “HETEROAROMATIC PHOSPHONIUM SALTS AND THEIR USE TREATING CANCER” (FLORATEK PHARMA S.A., priority 2021, published 2024).

The test system of one test is bile duct PDX. As to the kind of experiment: Cell viability, bile duct PDX (panel statement). Particulars: summary of Table 3; read-out: IC50, bile duct PDX growth. Format: cell-based. The protocol:
PDX-derived cell cultures were obtained from tumors explanted from mice and isolated by mechanical and enzymatic dissociation. […] Cells were harvested and seeded in 96-wells plates at a density of 1.25 to 5×10^3 cells/well for cytotoxicity assays. Cells were incubated 48 h at 37° C. prior to addition of test molecules and vehicle (DMSO, 0.1%) at desired final concentrations. Cell viability was assessed before drugs' addition (To) and 5 days after test molecules addition by measuring ATP cell content using CellTiter-Glo® Luminescent Cell Viability Assay (Promega) according to the manufacturer's instructions. Luciferase activity was measured on a luminometer (PerkinElmer® EnVision™). Each concentration of compounds was tested in triplicate.
Viability was calculated as a percentage of ATP value compared to vehicle treated controls.
For PDX primary cell cultures, the tumour tissue was washed with PBS containing antibiotic-antimycotic and non-tumour tissue and necrotic tumour tissues were separated. The tumour tissue was transferred to a new dish and cut into 1˜2 mm^3 fragments, resuspended in RPMI-1640 medium and centrifuged at 1,200 rpm for 6 min at room temperature. The pelleted material was resuspended with 15 mL of Tumour Cell Digestion Solution and incubated at 37° C. for 1 hour with agitation. […]

The next test deals with T1, RIOK2 (Homo sapiens, UniProt Q9BVS4).
T1 construct: purchased Eurofins (KINOMEscan); host or cells: E. coli BL21-derived host (T7 phage) or HEK-293
T1 sequence (Q9BVS4 whole entry): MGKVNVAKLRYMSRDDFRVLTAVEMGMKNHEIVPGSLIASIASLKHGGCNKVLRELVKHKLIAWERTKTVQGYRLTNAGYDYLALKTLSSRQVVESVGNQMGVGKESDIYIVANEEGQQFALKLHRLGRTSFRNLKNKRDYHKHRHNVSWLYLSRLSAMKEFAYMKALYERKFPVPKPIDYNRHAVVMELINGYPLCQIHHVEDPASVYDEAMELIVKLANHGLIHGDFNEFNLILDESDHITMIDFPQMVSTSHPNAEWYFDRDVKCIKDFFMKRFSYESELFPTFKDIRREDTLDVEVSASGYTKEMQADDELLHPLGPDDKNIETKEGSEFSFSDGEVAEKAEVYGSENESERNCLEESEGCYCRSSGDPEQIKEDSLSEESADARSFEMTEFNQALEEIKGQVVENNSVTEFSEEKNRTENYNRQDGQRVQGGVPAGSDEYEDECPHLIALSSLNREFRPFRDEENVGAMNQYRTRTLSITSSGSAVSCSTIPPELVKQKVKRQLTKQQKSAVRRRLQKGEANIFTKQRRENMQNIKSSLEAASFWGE
As to the kind of experiment: KINOMEscan competition binding, RIOK2. As for the experimental part:
Selected compounds were screened for kinase inhibition using the KINOMEscan™ assay (Eurofins) which is based on a competition binding assay that quantitatively measures the ability of a compound to compete with an immobilized, active-site directed ligand. The assay was performed by combining three components: DNA-tagged kinase; immobilized ligand; and the test compound. The ability of the test compound to compete with the immobilized ligand was measured via quantitative PCR of the DNA tag.
Kinase-tagged T7 phage strains were prepared in an E. coli host derived from the BL21 strain. E. coli were grown to log-phase and infected with T7 phage and incubated with shaking at 32° C. until lysis. The lysates were centrifuged and filtered to remove cell debris. The remaining kinases were produced in HEK-293 cells and subsequently tagged with DNA for qPCR detection. Streptavidin-coated magnetic beads were treated with biotinylated small molecule ligands for 30 minutes at room temperature to generate affinity resins for kinase assays. […] Kds were determined using an 11-point 3-fold compound dilution series with three DMSO control points. […] The kinase concentration in the eluates was measured by qPCR. […]
Binding constants (Kds) were calculated with a standard dose-response curve using the Hill equation: Response=Background+[Signal−Background/1+(Kd^Hill Slope/Dose^Hill Slope)] […]

On to `COc1c(O)ccc2c(=O)c(O)c(-c3ccc(CCCC[P+](c4ccccc4)(c4ccccc4)c4ccccc4)cc3)oc12` [SND190, (4-(4-(3,7-Dihydroxy-8-methoxy-4-oxo-4H1-chromen-2-yl)phenyl)butyl)triphenylphosphonium bromide], for which the IC50 in the test with bile duct PDX was < 10 µM. The same molecule had a Kd at RIOK2 of 0.71 µM.
